Starred links: 1 amine or outer side, 2 acyl side, 3 side chain; linkers in the order of their positions; H or OH if unused. Positions of bridges follow the written chain, without caps; N, C: chain ends. Non-standard residues stand in square brackets, D forms with d. Residues, ends and D or L forms follow the SMILES beside them. *: point of attachment. NMeF = CN[C@@H](Cc1ccccc1)C(=O)O; NMeGABA = CN(CCCC(=O)[*:2])[*:1]; NMeI = CC[C@H](C)[C@H](NC)C(=O)O; NMeT = CN[C@H](C(=O)O)[C@@H](C)O; hPhe = N[C@@H](CCc1ccccc1)C(=O)O; NMeβAla = CN(CCC(=O)[*:2])[*:1]; NMeD = CN[C@@H](CC(=O)O)C(=O)O; NMeL = CN[C@@H](CC(C)C)C(=O)O; NMeV = CN[C@H](C(=O)O)C(C)C; d(β3hA) = C[C@@H](N)CC(=O)O; NMeA = CN[C@@H](C)C(=O)O; Piperidide = C1CCN(*)CC1; Abu = CC[C@H](N)C(=O)O; NBuGly = CCCCNCC(=O)O; βAla = NCCC(=O)O; Sar = CNCC(=O)O; tBu = CC(C)(C)*
Assays:
[1] = Metabolic stability test: liver microsomal stability assay; assay type: in vitro ADME, mouse; details: mouse liver microsomes 0.5 mg protein/mL, compound 1 µM; for microsomal CLint at 1 µM: male, pH 7.4, presence of NADPH, read-out: Mouse Hepatic Microsome CLh,int NADPH(+); for Mouse Hepatic Microsome CLh,int NADPH(-): absence of NADPH
Experimental: Under the presence and absence of NADPH, a microsome solution prepared to a concentration of 0.5 mg protein/mL using 100 mM phosphate buffer (pH 7.4) with mouse liver microsomes (male, Corning Incorporated, USA) and the compound at a concentration of 1 µM were subjected to a metabolic reaction for 22 minutes, 44 minutes, or 66 minutes. Protein removal processing was performed over time using acetonitrile, and the remaining amount of unchanged compound was analyzed using LCMS to calculate the intrinsic hepatic clearance (CLh, int) (Table 6).

[2] = Membrane permeability test using Caco-2 cells with preincubation; assay type: in vitro ADME; details: Caco-2; preincubation 20 to 24 hours; Apical FaSSIF/HBSS pH 6.0, Basal HBSS 4% BSA pH 7.4; 180 minutes; read-out: Caco2 Papp
Experimental: (§1) The permeability coefficient (Caco-2 Papp (cm/sec)) is calculated using a numerical expression 1. [Expression 1] Papp = (1)/(C1 (0) × S) × (dQ)/(dt) [formula] dQ/dt represents the permeation rate of drug (the amount of drug appearing on the Basal side per unit time), S represents the total surface area of cells, and C1(0) represents the concentration of drug added on the Apical side.
(§2) Using a mixed medium of FaSSIF containing 1% DMSO and DMEM as the apical medium, and DMEM as the basal medium, Caco-2 cells and peptide compounds are preincubated for 20 to 24 hours under conditions of 5% CO2, 37°C, and 80 rpm. Afterward, the culture medium on the Apical side and the Basal side are aspirated and washed, the peptide compound was added to a FaSSIF/HBSS buffer solution containing 1% DMSO (1% DMSO) (pH 6.0) at the Apical side, a HBSS buffer solution containing 4% BSA (pH 7.4) was added to the Basal side, and measurement of membrane permeability is started. Each well is shaken under 5% CO2 at 37°C and 80 rpm, and at 180 minutes after the start of shaking, a sample on the Basal side is collected. The amount of peptide compounds in the sample was measured using LCMS, and the membrane permeability coefficient was calculated from the permeation amount (Table 7). When calculating the membrane permeability coefficient (Papp) from the permeation amount, the following expression can be used. Papp = (dQ)/(dt) × (1)/(C1 (0) × S) [formula]
(§3) dQ/dt represents the permeation rate of drug (the amount of drug appearing on the Basal side per unit time), C1(0) represents the concentration of drug added on the Apical side, and S represents the total surface area of cells.

Caco-2 cells = assay: as above; assay type: in vitro ADME; details: Caco-2 cells, preincubation 20 to 24 hours; apical FaSSIF/HBSS 1% DMSO pH 6.0, basal HBSS 4% BSA pH 7.4; basal sample at 180 minutes
Experimental: as §1, §2, §3

microsomal CLint at 1 µM [1] [µL/min/mg] | Mouse Hepatic Microsome CLh,int NADPH(-) [1] [µL/min/mg Protein] | Papp A→B [2] [×10⁻⁶ cm/s] | Caco2 Papp (10^-6 cm/sec) (Caco-2 cells) | SMILES
46.8 | 36.0 | 0.27 | 0.27 10^-6 cm/sec | CC[C@H](C)[C@@H]1NC(=O)[C@H](C)N(C)C(=O)[C@H]([C@@H](C)O)NC(=O)[C@H](Cc2ccccc2)N(C)C(=O)[C@H](COC(C)(C)C)NC(=O)[C@H](CC(C)C)N(C)C(=O)[C@H](C(C)C)NC(=O)CN(C)C(=O)[C@H](Cc2ccccc2)N(C)C(=O)[C@H]([C@@H](C)CC)NC(=O)[C@H](CC(C)C)N(C)C(=O)CCN(C)C(=O)C[C@@H](C(=O)N2CCCCC2)NC(=O)[C@H](CC(C)C)N(C)C1=O [pd034] ([NMeβAla][NMeL]I[NMeF][Sar]V[NMeL]S(tBu)[NMeF]T[NMeA]I[NMeL]D-Piperidide; lactam N-14)
38.9 | 42.4 | 0.13 | 0.13 10^-6 cm/sec | CC[C@H](C)[C@@H]1NC(=O)[C@H](CC(C)C)N(C)C(=O)[C@H](CC(C)C)NC(=O)[C@H](C)N(C)C(=O)C[C@@H](C)NC(=O)CN(C)C(=O)[C@H](CC(C)C)N(C)C(=O)[C@H]([C@@H](C)O)NC(=O)[C@H](C(C)C)NC(=O)[C@H]([C@@H](C)CC)N(C)C(=O)[C@H](COC(C)(C)C)NC(=O)[C@H](CC(C)C)N(C)C(=O)[C@H](C)NC(=O)[C@H](Cc2ccccc2)N(C)C1=O [pd009] (cyclo(A[NMeL]S(tBu)[NMeI]VT[NMeL][Sar][d(β3hA)][NMeA]L[NMeL]I[NMeF]))
76.5 | 19.7 | 0.71 | 0.71 10^-6 cm/sec | CC[C@@H]1NC(=O)[C@H](CC(C)C)N(C)C(=O)[C@H]([C@@H](C)CC)NC(=O)CN(C)C(=O)C[C@@H](C)NC(=O)[C@H](C(C)C)N(C)C(=O)[C@H](COC(C)(C)C)NC(=O)[C@H](CC(C)C)N(C)C(=O)[C@H](Cc2ccccc2)N(C)C(=O)[C@H](CC(C)C)NC(=O)CN(C)C(=O)[C@H]([C@@H](C)O)NC(=O)[C@H](CC(C)C)N(C)C1=O [pd129] (cyclo([Abu][NMeL]T[Sar]L[NMeF][NMeL]S(tBu)[NMeV][d(β3hA)][Sar]I[NMeL]))
41.4 | 30.0 | 0.16 | 0.16 10^-6 cm/sec | CC(C)C[C@H]1C(=O)N2CCC[C@H]2C(=O)N(C)[C@@H](Cc2ccccc2)C(=O)N[C@@H](C(C)C)C(=O)N(C)[C@@H](C)C(=O)N(C)[C@@H](C(C)C)C(=O)N[C@H](C(=O)N2CCCCC2)CC(=O)N[C@H](C(C)C)C(=O)N(C)[C@@H]([C@@H](C)O)C(=O)N(C)[C@@H](CC(C)C)C(=O)N(C)[C@@H](C(C)C)C(=O)N(C)[C@@H](CC(C)C)C(=O)N[C@@H](CCc2ccccc2)C(=O)N(C)CC(=O)N1C [pd047] ([dV][NMeT][NMeL][NMeV][NMeL][hPhe][Sar][NMeL]P[NMeF]V[NMeA][NMeV]D-Piperidide; lactam N-14)
25.6 | 23.6 | 0.53 | 0.53 10^-6 cm/sec | CC[C@H](C)[C@@H]1NC(=O)[C@H](CCc2ccccc2)NC(=O)[C@H](CC(C)C)N(C)C(=O)[C@H](C)N(C)C(=O)[C@H](Cc2ccccc2)N(C)C(=O)[C@@H]2CCCN2C(=O)[C@H]([C@@H](C)CC)NC(=O)[C@H](CC(C)C)N(C)C(=O)CCN(C)C(=O)C[C@@H](C)NC(=O)[C@H](CC(C)C)N(C)C(=O)[C@H]([C@@H](C)O)NC(=O)[C@H](C)N(C)C1=O [pd133] (cyclo(I[NMeA]T[NMeL][d(β3hA)][NMeβAla][NMeL]IP[NMeF][NMeA][NMeL][hPhe]))
49.5 | 42.0 | 0.64 | 0.64 10^-6 cm/sec | CCCCN1CC(=O)N(C)[C@@H](CC(C)C)C(=O)N[C@@H]([C@@H](C)O)C(=O)N(C)[C@@H](CC(C)C)C(=O)N2CCC[C@H]2C(=O)N[C@@H](CCc2ccccc2)C(=O)N[C@@H]([C@@H](C)CC)C(=O)N(C)[C@H](C(=O)N2CCCCC2)CC(=O)N(C)[C@@H](CC(C)C)C(=O)N[C@@H](COC(C)(C)C)C(=O)N(C)[C@@H](C(C)C)C(=O)N[C@@H]([C@@H](C)CC)C(=O)N2CCC[C@H]2C1=O [pd159] ([NMeL]S(tBu)[NMeV]IP[NBuGly][NMeL]T[NMeL]P[hPhe]I[NMeD]-Piperidide; lactam N-13)
27.1 | 15.0 | 0.12 | 0.12 10^-6 cm/sec | CC[C@@H]1NC(=O)[C@H](C)N(C)C(=O)[C@H](C(C)C)N(C)C(=O)[C@H]([C@@H](C)CC)NC(=O)[C@H](C)N(C)C(=O)CCCN(C)C(=O)C[C@@H](C)NC(=O)[C@H](C(C)C)N(C)C(=O)[C@H](CCc2ccccc2)NC(=O)CCN(C)C(=O)[C@H]([C@@H](C)O)N(C)C(=O)[C@H](CC(C)C)N(C)C(=O)[C@H]([C@@H](C)CC)NC(=O)[C@H](Cc2ccccc2)N(C)C1=O [pd055] (cyclo([Abu][NMeF]I[NMeL][NMeT][NMeβAla][hPhe][NMeV][d(β3hA)][NMeGABA][NMeA]I[NMeV][NMeA]))
1.4 | 1.1 | 0.05 | 0.05 10^-6 cm/sec | CC[C@@H]1NC(=O)[C@H](C)N(C)C(=O)[C@H](CC(C)C)N(C)C(=O)[C@H]([C@@H](C)O)N(C)C(=O)[C@H](CC(C)C)N(C)C(=O)CCNC(=O)[C@H](Cc2ccccc2)N(C)C(=O)CN(C)C(=O)C[C@@H](C(=O)N2CCCCC2)NC(=O)[C@H](C(C)C)N(C)C(=O)[C@H](C)N(C)C(=O)[C@@H]2CCCN2C(=O)[C@H](C(C)C)NC(=O)[C@H](Cc2ccccc2)N(C)C1=O [pd005] ([Sar][NMeF][βAla][NMeL][NMeT][NMeL][NMeA][Abu][NMeF]VP[NMeA][NMeV]D-Piperidide; lactam N-14)

SMILES | microsomal CLint at 1 µM [1] [µL/min/mg] | Mouse Hepatic Microsome CLh,int NADPH(-) [1] [µL/min/mg Protein] | Papp A→B [2] [×10⁻⁶ cm/s] | Caco2 Papp (10^-6 cm/sec) (Caco-2 cells)
CC[C@H](C)[C@H]1C(=O)N[C@@H]([C@@H](C)O)C(=O)N(C)CC(=O)N(C)[C@@H](CC(C)C)C(=O)N(C)[C@@H](Cc2ccccc2)C(=O)N[C@H](C(=O)N2CCCCC2)CC(=O)N(C)[C@@H](C)C(=O)N[C@@H](CC(C)C)C(=O)N(C)[C@@H](Cc2ccccc2)C(=O)N(C)[C@@H](C)C(=O)N(C)[C@@H](CC(C)C)C(=O)N[C@@H](COC(C)(C)C)C(=O)N(C)[C@@H](C)C(=O)N[C@@H](CC(C)C)C(=O)N1C [pd044] ([NMeA]L[NMeF][NMeA][NMeL]S(tBu)[NMeA]L[NMeI]T[Sar][NMeL][NMeF]D-Piperidide; lactam N-14) | 54.3 | 33.1 | 0.83 | 0.83 10^-6 cm/sec
CC[C@@H]1NC(=O)[C@H](CC(C)C)N(C)C(=O)[C@H]([C@@H](C)CC)NC(=O)CN(C)C(=O)C[C@@H](C)NC(=O)[C@H](C(C)C)N(C)C(=O)[C@H](COC(C)(C)C)NC(=O)[C@H](CC(C)C)N(C)C(=O)[C@H](Cc2ccccc2)N(C)C(=O)[C@H](C)NC(=O)[C@H](C(C)C)NC(=O)CN(C)C(=O)[C@H]([C@@H](C)O)NC(=O)[C@H](CC(C)C)N(C)C1=O [pd011] (cyclo(A[NMeF][NMeL]S(tBu)[NMeV][d(β3hA)][Sar]I[NMeL][Abu][NMeL]T[Sar]V)) | 27.3 | 22.9 | 0.11 | 0.11 10^-6 cm/sec
CC[C@H](C)[C@@H]1NC(=O)[C@H](Cc2ccccc2)N(C)C(=O)[C@H](CC(C)C)N(C)C(=O)[C@H](CC(C)C)NC(=O)[C@H](C)N(C)C(=O)C[C@@H](C(=O)N2CCCCC2)N(C)C(=O)[C@H](C)N(C)C(=O)[C@H](CC(C)C)NC(=O)[C@H](CC(C)C)N(C)C(=O)CNC(=O)[C@H]([C@@H](C)CC)N(C)C(=O)[C@H](Cc2ccccc2)N(C)C(=O)[C@H](C)NC1=O [pd152] ([NMeA]L[NMeL][NMeF]IA[NMeF][NMeI]G[NMeL]L[NMeA][NMeD]-Piperidide; lactam N-13) | 40.2 | 32.5 | 1.02 | 1.02 10^-6 cm/sec

From EP4768499A1, “MACROCYCLIC PEPTIDE COMPOUND HAVING CELL MEMBRANE PERMEABILITY AND METABOLIC STABILITY, AND LIBRARY CONTAINING SAME” (Chugai Seiyaku Kabushiki Kaisha, priority 2023, dated 2025)
